Measurements from patent US11207312B2, “Metallo-beta-lactamase inhibitors and methods of use thereof” (priority 2017, dated 2021).

Assays:
NDM-1 = NDM-1 (Klebsiella pneumoniae, UniProt C7C422); assay: biochemical; type: biochemical; conditions: CCF2-FA fluorescence assay, 2 hours at 25° C.
Procedure, shortened: (§1)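 Each enzyme (final 1 pM NDM-1, 2 pM IMP-1, 30 pM VIM-1) was incubated with test inhibitor (20 μM to 0.00063 μM) and 1.25 μM CCF2-FA for 2 hours at 25° C in zinc-supplemented phosphate buffer, pH 7. Fluorescence at 460 nm was then read and IC50 fitted with four parameters.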

IMP-1 = IMP-1 (Serratia marcescens, UniProt P52699); assay: biochemical; conditions: CCF2-FA fluorescence assay, 2 hours at 25° C.; read-out: IMP1 IC50
Procedure, shortened: as §1

VIM-1 = VIM-1 (Pseudomonas aeruginosa (strain ATCC 15692 / DSM 22644 / CIP 104116 / JCM 14847 / LMG 12228 / 1C / PRS 101 / PAO1), UniProt A0A0F7KYQ8); assay: biochemical; conditions: CCF2-FA fluorescence assay, 2 hours at 25° C.; read-out: VIM1 IC50
Procedure, shortened: as §1

VIM-2 = VIM-2 (Escherichia coli, UniProt Q5U7L7); assay: biochemical; conditions: CCF2-FA fluorescence assay; read-out: VIM2 IC50
[1] = tested on: Escherichia coli expressing NDM-1 (CLB30016); type: cell-based; conditions: with imipenem 1 μg/ml; 95% inhibition of bacterial growth
Procedure, shortened: (§2)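 Synergy with imipenem at a fixed 1 μg/ml was scored by absorbance following 22–24 h incubation at 35 °C; the potentiating concentration (MITC95) was the lowest giving 95% growth inhibition.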

[2] = tested on: Klebsiella pneumoniae expressing VIM-1 (IHMA599644); type: cell-based; conditions: with imipenem 1 μg/ml; 95% inhibition of bacterial growth
Procedure, shortened: as §2

[3] = tested on: Serratia marcescens expressing IMP-1 (CL5741); type: cell-based; conditions: with imipenem 1 μg/ml; 95% inhibition of bacterial growth
Procedure, shortened: as §2

[4] = tested on: P. aeruginosa MB9798 (efflux+, IMP-1 plasmid); conditions: for MB9798 MITC95 P. aeruginosa uM Efflux WT: efflux + (MB9798) strain, imipenem at 2 μg/mL, in the presence of a class A, C, D serine β-lactamase inhibitor closely related to relebactam; for Efflux ratio: fold difference between efflux+ (MB9798) and efflux− (MB9799) strains
Procedure, shortened: (§3)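 Isogenic P. aeruginosa PAO1 strains (efflux+ and multiple-efflux-pump-disrupted) carrying plasmid IMP-1, with inducible AmpC, tested by broth microdilution. Imipenem and/or ceftazidime fixed, usually at CLSI breakpoint, plus fixed class A/C β-lactamase inhibitor; titrated MBL inhibitor concentration restoring susceptibility recorded and compared between strains as efflux fold difference.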

[5] = tested on: P. aeruginosa MB9799 (efflux-, IMP-1 plasmid); type: cell-based, Pseudomonas aeruginosa; conditions: efflux − (MB9799) strain; imipenem at 2 μg/mL; in the presence of a class A, C, D serine β-lactamase inhibitor closely related to relebactam
Procedure, shortened: as §3

NDM-1, sequence (C7C422 whole entry, looked up, species assumed): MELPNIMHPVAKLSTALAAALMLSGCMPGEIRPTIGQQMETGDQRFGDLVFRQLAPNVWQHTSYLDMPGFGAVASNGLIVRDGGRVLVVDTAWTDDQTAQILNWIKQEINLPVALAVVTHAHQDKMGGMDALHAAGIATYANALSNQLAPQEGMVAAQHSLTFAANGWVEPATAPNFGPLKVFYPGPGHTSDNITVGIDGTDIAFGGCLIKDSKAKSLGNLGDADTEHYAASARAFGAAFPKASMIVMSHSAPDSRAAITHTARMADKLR
IMP-1, sequence (P52699 whole entry, looked up, species assumed): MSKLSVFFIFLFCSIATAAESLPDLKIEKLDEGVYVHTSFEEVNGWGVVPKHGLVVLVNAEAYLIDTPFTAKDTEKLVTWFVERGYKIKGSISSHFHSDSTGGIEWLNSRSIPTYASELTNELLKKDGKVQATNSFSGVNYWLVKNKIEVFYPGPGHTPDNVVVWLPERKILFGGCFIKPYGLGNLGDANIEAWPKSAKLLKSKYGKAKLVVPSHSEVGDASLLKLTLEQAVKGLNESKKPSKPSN

SMILES | IC50 (NDM-1) | IC50 (IMP-1) | IC50 (VIM-1) | IC50 (VIM-2) | CLB30016 E. coli MITC95 NDM [1] | IHMA599644 K. pneumoniae MITC95 VIM [2] | CL5741 S. marcescens MITC95 IMP [3] | MB9798 MITC95 P. aeruginosa uM Efflux WT [4] | Efflux ratio [4] | MB9799 MITC95 P. aeruginosa uM Efflux Mutant [5]
C[C@H](CN)NS(=O)(=O)c1ccc(N2CC[C@@H](CN)[C@@H](F)C2)c(-c2nn[nH]n2)c1S(N)(=O)=O (racemic) [Example 8] | 0.19 nM | 1.12 nM | 0.07 nM | 2.35 nM | 0.20 µM | 0.78 µM | 0.39 µM | 0.78 µM | 2.00 | 0.39 µM
COC1(CO)CCN(c2ccc(S(=O)(=O)N[C@H](C)CN)c(S(N)(=O)=O)c2-c2nn[nH]n2)CC1 [Example 19, (R)-N1-(1-aminopropan-2-yl)-4-(4-(hydroxymethyl)-4-methoxypiperidin-1-yl)-3-(2H-tetrazol-5-yl)benzene-1,2-disulfonamide] | 0.17 nM | 0.37 nM | 0.65 nM | 2.27 nM | 3.13 µM | 12.50 µM | 3.13 µM | 3.13 µM | 1.00 | 3.13 µM
NC(=O)[C@@H]1CN(c2ccc(S(=O)(=O)N[C@@H]3CCNC3)c(S(N)(=O)=O)c2-c2nn[nH]n2)CCN1 [Example 196, (S)-4-(4-(N—((R)-pyrrolidin-3-yl)sulfamoyl)-3-sulfamoyl-2-(2H-tetrazol-5-yl)phenyl)piperazine-2-carboxamide] | 0.72 nM | 3.26 nM | 0.44 nM | 1.7 nM | 0.29 µM | 1.17 µM | 0.20 µM | 2.34 µM | 3.00 | 0.78 µM
CC1(CN)CCN(c2ccc(S(=O)(=O)NC[C@H](O)CN)c(S(N)(=O)=O)c2-c2nn[nH]n2)CC1 [Example 138, (R)-N1-(3-amino-2-hydroxypropyl)-4-(4-(aminomethyl)-4-methylpiperidin-1-yl)-3-(2H-tetrazol-5-yl)benzene-1,2-disulfonamide] | 2.47 nM | 6.91 nM | 0.71 nM | 10.3 nM | 1.56 µM | 1.56 µM | 1.56 µM | 1.56 µM | 2.00 | 0.78 µM
NS(=O)(=O)c1c(S(=O)(=O)N[C@@H]2CCNC2)ccc(N2CCC(CO)CC2=O)c1-c1nn[nH]n1 (stereo partly drawn) [Example 157, 4-(4-(hydroxymethyl)-2-oxopiperidin-1-yl)-N1-((R)-pyrrolidin-3-yl)-3-(2H-tetrazol-5-yl)benzene-1,2-disulfonamide] | 0.24 nM | 6.9 nM | 0.25 nM | 1.85 nM | 1.56 µM | 6.25 µM | 3.13 µM | 3.13 µM | 1.00 | 3.13 µM
NC1CCN(c2ccc(S(=O)(=O)N[C@@H]3CCNC3)c(S(N)(=O)=O)c2-c2nnn[nH]2)CC1 [Example 73, 4-(4-aminopiperidin-1-yl)-N1-[(3R)-pyrrolidin-3-yl]-3-(1H-tetrazol-5-yl)benzene-1,2-disulfonamide] | 9.84 nM | 16.6 nM | 0.31 nM | 16.1 nM | 0.78 µM | 1.56 µM | 1.56 µM | 1.56 µM | 2.00 | 0.78 µM
NC[C@H]1CCCN(c2ccc(S(=O)(=O)N[C@@H]3CCNC3)c(S(N)(=O)=O)c2-c2nnn[nH]2)C1 [Example 82, 4-[(3R)-3-(aminomethyl)piperidin-1-yl]-N1-[(3R)-pyrrolidin-3-yl]-3-(1H-tetrazol-5-yl)benzene-1,2-disulfonamide] | 42.9 nM | 45.6 nM | 0.9 nM | 9.33 nM | 0.78 µM | 0.78 µM | 0.78 µM | 6.25 µM | 2.00 | 3.13 µM
CN(CCO)CCN(C)c1ccc(S(=O)(=O)NC[C@H](O)CN)c(S(N)(=O)=O)c1-c1nn[nH]n1 [Example 136, (R)—N1-(3-amino-2-hydroxypropyl)-4-((2-((2-hydroxyethyl)(methyl)amino)ethyl)(methyl)amino)-3-(2H-tetrazol-5-yl)benzene-1,2-disulfonamide] | 200 nM | 200 nM | 14.2 nM | 27.4 nM | 3.13 µM | 1.56 µM | 12.50 µM | 50.00 µM | 4.00 | 12.50 µM
NC[C@@H](O)CNS(=O)(=O)c1ccc(N2CC[C@H](N)[C@H](F)C2)c(-c2nn[nH]n2)c1S(N)(=O)=O [Example 195, N1-((R)-3-amino-2-hydroxypropyl)-4-((3R,4S)-4-amino-3-fluoropiperidin-1-yl)-3-(2H-tetrazol-5-yl)benzene-1,2-disulfonamide] | 1.51 nM | 4.27 nM | 0.14 nM | 2.86 nM | 0.20 µM | 0.39 µM | 0.20 µM | 0.78 µM | 1.00 | 0.78 µM
NCCNS(=O)(=O)c1ccc(N2CCC(O)(CN)CC2)c(-c2nn[nH]n2)c1S(N)(=O)=O [Example 17] | 17 nM | 26.9 nM | 15.1 nM | 64.6 nM | 0.78 µM | 1.56 µM | 0.78 µM | 1.56 µM | 2.00 | 0.78 µM
NOC1CCCN(c2ccc(S(=O)(=O)N[C@@H]3CCNC3)c(S(N)(=O)=O)c2-c2nn[nH]n2)C1=O (stereo partly shown) [Example 150] | 0.62 nM | 17.1 nM | 0.38 nM | 1.52 nM | 1.56 µM | 12.50 µM | 6.25 µM | 12.50 µM | 4.00 | 3.13 µM
NC[C@@H](O)CNS(=O)(=O)c1ccc(N2CCC3(CC2)CNC(N)=N3)c(-c2nn[nH]n2)c1S(N)(=O)=O [Example 171, (R)—N1-(3-amino-2-hydroxypropyl)-4-(2-amino-1,3,8-triazaspiro [4.5]dec-1-en-8-yl)-3-(2H-tetrazol-5-yl)benzene-1,2-disulfonamide] | 3.38 nM | 7.39 nM | 0.92 nM | 27.8 nM | 0.39 µM | 0.78 µM | 0.78 µM | 0.78 µM | 2.00 | 0.39 µM
NS(=O)(=O)c1c(S(=O)(=O)C2CNC2)ccc(N2CCN(CCO)CC2)c1-c1nnn[nH]1 [Example 54, 6-(azetidin-3-ylsulfonyl)-3-[4-(2-hydroxyethyl)piperazin-1-yl]-2-(1H-tetrazol-5-yl)benzenesulfonamide] | 16.7 nM | 21.9 nM | 66.1 nM | 69.5 nM | 0.39 µM | 6.25 µM | 0.39 µM | 6.25 µM | 4.00 | 1.56 µM
